The nature of series [1]: Apparent permeability across apical to basolateral side in human Caco-2 cells measured after 120 mins by LC-MS/MS analysis.
A short description of series [2]: Apparent permeability across basolateral to apical side in human Caco-2 cells measured after 120 mins by LC-MS/MS analysis.
Series [3] is described as follows: Stability in human plasma assessed as parent compound remaining at 1 uM measured after 2 hrs by LC-MS/MS analysis.
Series [4] can be described thus: Efflux ratio of apparent permeability across basolateral to apical side to apical to basolateral side in human Caco-2 cells measured after 120 mins by LC-MS/MS analysis. Background: Caco-2 cells form a polarised layer with tight junctions and transporters.
A short description of another series: physchem. The conditions noted are these: buffer, pH 7.4.
Series [5] can be described thus: Stability in mouse plasma assessed as parent compound remaining at 1 uM measured after 2 hrs by LC-MS/MS analysis.
The next series addresses T1, Toll-like receptor 7 (Homo sapiens, UniProt Q9NYK1).
T1 sequence (Q9NYK1 whole entry): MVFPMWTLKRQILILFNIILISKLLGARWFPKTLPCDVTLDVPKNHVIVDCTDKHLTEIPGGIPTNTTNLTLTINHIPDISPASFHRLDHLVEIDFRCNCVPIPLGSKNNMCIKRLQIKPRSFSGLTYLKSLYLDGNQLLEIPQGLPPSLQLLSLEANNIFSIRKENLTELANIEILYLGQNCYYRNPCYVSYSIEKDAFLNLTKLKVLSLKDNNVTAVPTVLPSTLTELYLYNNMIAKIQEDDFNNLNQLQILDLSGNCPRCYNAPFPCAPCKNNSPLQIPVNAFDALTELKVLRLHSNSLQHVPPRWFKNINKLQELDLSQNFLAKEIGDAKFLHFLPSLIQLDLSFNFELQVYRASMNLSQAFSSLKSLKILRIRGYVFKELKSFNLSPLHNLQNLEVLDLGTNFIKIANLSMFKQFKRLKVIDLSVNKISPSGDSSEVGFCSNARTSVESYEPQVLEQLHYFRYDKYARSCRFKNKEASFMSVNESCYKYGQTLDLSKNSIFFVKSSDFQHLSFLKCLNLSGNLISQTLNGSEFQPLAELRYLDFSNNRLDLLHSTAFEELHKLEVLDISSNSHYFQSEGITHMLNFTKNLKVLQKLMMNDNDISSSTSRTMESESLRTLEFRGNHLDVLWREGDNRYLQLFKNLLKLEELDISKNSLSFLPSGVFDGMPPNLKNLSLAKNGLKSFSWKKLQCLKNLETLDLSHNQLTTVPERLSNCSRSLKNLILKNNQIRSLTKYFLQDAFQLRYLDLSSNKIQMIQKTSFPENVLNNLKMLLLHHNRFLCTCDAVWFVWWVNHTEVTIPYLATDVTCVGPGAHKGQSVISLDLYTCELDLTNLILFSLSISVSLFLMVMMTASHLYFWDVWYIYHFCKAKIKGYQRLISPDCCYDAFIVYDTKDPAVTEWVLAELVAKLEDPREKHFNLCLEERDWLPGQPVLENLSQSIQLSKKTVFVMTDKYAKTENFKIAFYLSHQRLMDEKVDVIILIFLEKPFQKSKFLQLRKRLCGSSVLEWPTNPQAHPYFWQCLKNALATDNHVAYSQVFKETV

Series [6] has as its target T2, Toll-like receptor 9 (Homo sapiens, UniProt Q9NR96).
T2 sequence (Q9NR96 whole entry): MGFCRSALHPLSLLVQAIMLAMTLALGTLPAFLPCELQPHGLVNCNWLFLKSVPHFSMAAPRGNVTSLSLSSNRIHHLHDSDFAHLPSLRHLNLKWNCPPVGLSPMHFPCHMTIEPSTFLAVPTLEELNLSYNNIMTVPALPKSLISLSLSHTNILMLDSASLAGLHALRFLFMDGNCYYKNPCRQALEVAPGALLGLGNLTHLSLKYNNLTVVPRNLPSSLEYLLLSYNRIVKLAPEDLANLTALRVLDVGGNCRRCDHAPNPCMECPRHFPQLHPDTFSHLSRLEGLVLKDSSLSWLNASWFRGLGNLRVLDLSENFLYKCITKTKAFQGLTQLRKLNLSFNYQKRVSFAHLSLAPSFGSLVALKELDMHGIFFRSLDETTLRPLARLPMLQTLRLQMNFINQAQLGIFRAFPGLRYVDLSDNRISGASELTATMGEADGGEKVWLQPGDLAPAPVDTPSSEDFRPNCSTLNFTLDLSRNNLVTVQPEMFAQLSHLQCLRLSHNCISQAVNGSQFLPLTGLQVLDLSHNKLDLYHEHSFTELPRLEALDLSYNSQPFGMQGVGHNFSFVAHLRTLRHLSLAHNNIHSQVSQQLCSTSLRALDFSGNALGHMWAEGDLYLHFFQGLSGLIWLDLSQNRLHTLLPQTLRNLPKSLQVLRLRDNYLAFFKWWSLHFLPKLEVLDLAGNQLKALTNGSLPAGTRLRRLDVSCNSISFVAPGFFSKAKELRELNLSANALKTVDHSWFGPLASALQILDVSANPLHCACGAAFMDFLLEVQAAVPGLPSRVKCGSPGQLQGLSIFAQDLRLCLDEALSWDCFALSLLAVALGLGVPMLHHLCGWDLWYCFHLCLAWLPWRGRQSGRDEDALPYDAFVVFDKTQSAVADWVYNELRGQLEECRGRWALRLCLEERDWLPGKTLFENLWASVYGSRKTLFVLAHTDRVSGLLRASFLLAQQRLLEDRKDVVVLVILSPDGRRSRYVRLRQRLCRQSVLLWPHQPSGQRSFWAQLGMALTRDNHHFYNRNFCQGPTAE
In words: Antagonist activity at human TLR9 expressed in HEK-blue hTLR9 cells assessed as inhibition of CpGB-induced NFkappaB activation preincubated with compound for 1 hrs followed by CpGB addition and measured next day by SEAP-based spectrophotometry assay. The series is classed as cell-based.

Series [7] concerns the target T2, Toll-like receptor 9.
The target in a further series is T3, Toll-like receptor 8 (Homo sapiens, UniProt Q9NR97).
T3 sequence (Q9NR97 whole entry): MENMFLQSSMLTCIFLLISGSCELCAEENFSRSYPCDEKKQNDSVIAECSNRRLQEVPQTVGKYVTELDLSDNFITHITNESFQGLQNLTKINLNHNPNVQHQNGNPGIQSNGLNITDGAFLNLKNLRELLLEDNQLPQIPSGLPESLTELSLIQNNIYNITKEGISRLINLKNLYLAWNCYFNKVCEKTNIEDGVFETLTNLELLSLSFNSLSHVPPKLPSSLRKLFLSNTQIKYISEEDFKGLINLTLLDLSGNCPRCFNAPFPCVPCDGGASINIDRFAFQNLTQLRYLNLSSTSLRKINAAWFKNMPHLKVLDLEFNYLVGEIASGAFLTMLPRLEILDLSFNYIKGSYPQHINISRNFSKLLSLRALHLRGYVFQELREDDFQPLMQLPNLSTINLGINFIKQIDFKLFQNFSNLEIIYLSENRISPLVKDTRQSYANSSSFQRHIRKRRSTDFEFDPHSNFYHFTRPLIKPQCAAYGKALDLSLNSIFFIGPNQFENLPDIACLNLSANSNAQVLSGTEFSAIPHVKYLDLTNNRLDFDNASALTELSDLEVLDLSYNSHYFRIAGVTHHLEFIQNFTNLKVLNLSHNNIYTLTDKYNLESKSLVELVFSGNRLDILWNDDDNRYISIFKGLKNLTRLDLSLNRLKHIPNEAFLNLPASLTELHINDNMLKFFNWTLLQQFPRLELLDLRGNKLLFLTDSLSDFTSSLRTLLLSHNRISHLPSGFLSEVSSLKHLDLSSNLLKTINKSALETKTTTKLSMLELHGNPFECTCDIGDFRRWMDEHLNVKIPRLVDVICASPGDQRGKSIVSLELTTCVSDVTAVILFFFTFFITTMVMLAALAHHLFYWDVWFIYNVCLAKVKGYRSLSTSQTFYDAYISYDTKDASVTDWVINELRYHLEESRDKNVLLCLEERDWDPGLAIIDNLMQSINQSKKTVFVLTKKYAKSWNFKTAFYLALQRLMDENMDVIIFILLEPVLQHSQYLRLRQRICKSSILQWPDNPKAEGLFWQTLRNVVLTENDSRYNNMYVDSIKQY

Converted amounts (≈) assume the structure as drawn.

What is called Papp A→B is how fast a substance crosses the layer from the apical side. As a reminder, the Papp B→A is the apparent permeability from the basolateral to the apical side of a cell layer. As usually defined, the share remaining is the share of the starting amount still present when the sample was taken. The efflux ratio is a quotient of directional permeabilities that is used to spot active efflux. By kinetic solubility is commonly meant the concentration staying in solution when a stock, usually in DMSO, is diluted into the medium. Broadly, the IC50 is the concentration needed to halve the response being measured. As to `COc1ccc(-c2cn3ccc(N4CCN(C5CCCC5)CC4)cc3n2)c(OCCCN2CCOCC2)c1`, in series [1], the apical-to-basolateral permeability (Papp A→B) at 2 h is 15.4 ×10⁻⁶ cm/s. For the same compound, in series [2], the Papp B→A at 2 h stood at 8.17 ×10⁻⁶ cm/s. Further, the values for the share remaining at 2 h, 1 µM in series [3] and in series [5] were 94.3% and 90.6%, respectively. In addition, the efflux ratio at 2 h in series [4] was found to be 0.5. In “physchem”, this compound registered a solubility (kinetic) at 24 h, 500 µM of 2.6 µg/mL (≈ 5 µM). The IC50 against Toll-like receptor 7 worked out at 478 nM; on Toll-like receptor 9 [6] it was 28 nM.

`COc1ccc(-c2cn3ccc(N4CCN(C(C)C)CC4)cc3n2)c(OC)c1`: the IC50 at Toll-like receptor 9 [6] is 40 nM; against Toll-like receptor 9 [7], 28 nM.

Turning to `COc1ccc(-c2cn3ccc(NCCCN4CCCC4)cc3n2)c(OC)c1`, the figures for the 50% inhibitory concentration (IC50) against Toll-like receptor 8 and on Toll-like receptor 9 [6] were 17200 nM and 19 nM, respectively.

The values above are taken from ChEMBL document CHEMBL5126608, “Development, Optimization, and In Vivo Validation of New Imidazopyridine Chemotypes as Dual TLR7/TLR9 Antagonists through Activity-Directed Sequential Incorporation of Relevant Structural Subunits” (J Med Chem, 2022).
